The test has as its system behaviors of compound-treated mice. The test is described as follows: Neuropharmacological Assay (SmartCube). Format: in vivo. The settings on record: for minimal effective dose: Mus musculus, ip, 0.25 h, dose having 50% or more total activity in SmartCube, read-out: MED (minimal effective dose). In outline: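 Behavioral signatures were captured automatically by video, and each drug class received a probability for the best of three i.p. doses given 15 min pre-test (vehicle: Pharmasolve/PEG/propylene glycol). Potency is given as MED, the lowest mpk dose (typically 0.3–30) reaching 50% or more total activity.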

Where [1] appears, read: i.p. 15 min before behavioral test, most efficacious dose(s) of 3 doses.
[2] abbreviates: SmartCube, i.p. 15 min before test, most efficacious dose(s).

Structures are written as SMILES. Where a name gives a salt, the structure may show the parent alone. Read-outs that look alike come from different tables or passages of the source.

The minimal effective dose is the smallest amount tested that counted as effective.

For the molecule `CNC[C@H]1OCCCc2c(-c3cncs3)cccc21` (single isomer, unassigned) [Compound 169, hydrochloride salt], the minimal effective dose (i.p.) fell in the range of 10 to 30 mg/kg. Moreover, under setting [1], the “AD: ADHD (probability that activity matches class)” value (shortened to “AD: ADHD”) was “+ (LOQ ≤ + <5%)”, the “AG: analgesic (probability that activity matches class)” value (from here on “AG: analgesic”) is “+ (LOQ ≤ + <5%)”, the “AX: anxiolytic (probability that activity matches class)” value (from here on “AX: anxiolytic”) was “+ (LOQ ≤ + <5%)” and the “CE: cognitive enhancer (probability that activity matches class)” value (shortened to “CE: cognitive enhancer”) is “+ (LOQ ≤ + <5%)”. For the same molecule, under setting [1], the “DP: anti-depressant (probability that activity matches class)” value (“DP: anti-depressant” below) was “+ (LOQ ≤ + <5%)”, the “MS: mood stabilizer (probability that activity matches class)” value (shortened to “MS: mood stabilizer”) is “+ (LOQ ≤ + <5%)”, the “PS: anti-psychotic (probability that activity matches class)” value (“PS: anti-psychotic” for short) is recorded as “+ (LOQ ≤ + <5%)” and the “SD: sedative hypnotic (probability that activity matches class)” value (shortened to “SD: sedative hypnotic”) is given as “+ (LOQ ≤ + <5%)”. Further, the “UN: uncharacterized CNS activity (probability that activity matches class)” value (shortened to “UN: uncharacterized CNS activity”) under setting [1] is “+ (LOQ ≤ + <5%)”.
`NC[C@@H]1OCCCc2c(-c3cncs3)cccc21` (single isomer, unassigned) [Compound 170, hydrochloride salt]: under “i.p.”, the minimal effective dose lay within 3 to 10 mg/kg. Besides, under setting [1], the “AD: ADHD” value is “+ (LOQ ≤ + <5%)”, the “AG: analgesic” value is “+ (LOQ ≤ + <5%)”, the “AX: anxiolytic” value is “++ (5% ≤ ++ <25%)” and the “CE: cognitive enhancer” value is listed as “+ (LOQ ≤ + <5%)”. Besides, under setting [1], the “DP: anti-depressant” value is given as “++ (5% ≤ ++ <25%)”, the “MS: mood stabilizer” value is “+ (LOQ ≤ + <5%)”, the “PS: anti-psychotic” value was “+ (LOQ ≤ + <5%)” and the “SD: sedative hypnotic” value is recorded as “++ (5% ≤ ++ <25%)”. Besides, the “UN: uncharacterized CNS activity” value under setting [1] is reported as “+++ (25% ≤ +++ <50%)”.
Take `NC[C@H]1OCCCc2c(-c3cncs3)cccc21` (single isomer, unassigned) [Compound 171, hydrochloride salt]: the minimal effective dose (i.p.) lay within 10 to 30 mg/kg. For the same molecule, under setting [1], the “AD: ADHD” value is on record as “+ (LOQ ≤ + <5%)”, the “AG: analgesic” value is given as “+ (LOQ ≤ + <5%)”, the “AX: anxiolytic” value is given as “+ (LOQ ≤ + <5%)” and the “CE: cognitive enhancer” value was “+ (LOQ ≤ + <5%)”. Under setting [1], the “DP: anti-depressant” value is “+ (LOQ ≤ + <5%)”, the “MS: mood stabilizer” value is “+ (LOQ ≤ + <5%)”, the “PS: anti-psychotic” value was “+ (LOQ ≤ + <5%)” and the “SD: sedative hypnotic” value was “+ (LOQ ≤ + <5%)”. In addition, under setting [1], the “UN: uncharacterized CNS activity” value is “+ (LOQ ≤ + <5%)”.
Consider `c1cc(-c2ccncc2)c2c(c1)[C@H](CNC1CC1)OCC2` (single isomer, unassigned) [Compound 180, hydrochloride salt], for which the minimal effective dose (i.p.) fell in the range of 3 to 10 mg/kg. Further, under setting [1], the “AD: ADHD” value was “+ (LOQ ≤ + <5%)”, the “AG: analgesic” value is on record as “+ (LOQ ≤ + <5%)”, the “AX: anxiolytic” value is “++ (5% ≤ ++ <25%)” and the “CE: cognitive enhancer” value is reported as “+ (LOQ ≤ + <5%)”. For the same molecule, under setting [1], the “DP: anti-depressant” value was “++ (5% ≤ ++ <25%)”, the “MS: mood stabilizer” value is recorded as “+ (LOQ ≤ + <5%)”, the “PS: anti-psychotic” value was “+ (LOQ ≤ + <5%)” and the “SD: sedative hypnotic” value is given as “+ (LOQ ≤ + <5%)”. The “UN: uncharacterized CNS activity” value under setting [1] is “++++ (50% ≤ ++++)”.
In the case of `c1cc(-c2ccncc2)c2c(c1)[C@@H](CNC1CC1)OCC2` (single isomer, unassigned) [Compound 181, hydrochloride salt], the minimal effective dose is no more than 3 mg/kg. In addition, under setting [2], the “AD: ADHD” value is “++ (5% ≤ ++ <25%)”, the “AG: analgesic” value is listed as “+ (LOQ ≤ + <5%)”, the “AX: anxiolytic” value is given as “+ (LOQ ≤ + <5%)” and the “CE: cognitive enhancer” value is given as “+ (LOQ ≤ + <5%)”. Under setting [2], the “DP: anti-depressant” value is “++++ (50% ≤ ++++)”, the “MS: mood stabilizer” value is listed as “+ (LOQ ≤ + <5%)”, the “PS: anti-psychotic” value is “+ (LOQ ≤ + <5%)” and the “SD: sedative hypnotic” value is “+ (LOQ ≤ + <5%)”. In addition, the “UN: uncharacterized CNS activity” value under setting [2] was “++ (5% ≤ ++ <25%)”.
With `CNC[C@H]1OCCc2cccc(-c3cccnc3)c21` [Compound 2, (S)-N-Methyl-1-(8-(pyridin-3-yl)isochroman-1-yl)methanamine bis-hydrochloride], the minimal effective dose (i.p.) is greater than 30 mg/kg. In addition, under setting [1], the “AD: ADHD” value is “+ (LOQ ≤ + <5%)”, the “AG: analgesic” value was “+ (LOQ ≤ + <5%)”, the “AX: anxiolytic” value was “+ (LOQ ≤ + <5%)” and the “CE: cognitive enhancer” value is recorded as “+ (LOQ ≤ + <5%)”. Under setting [1], the “DP: anti-depressant” value was “+ (LOQ ≤ + <5%)”, the “MS: mood stabilizer” value was “+ (LOQ ≤ + <5%)”, the “PS: anti-psychotic” value is on record as “+ (LOQ ≤ + <5%)” and the “SD: sedative hypnotic” value is “+ (LOQ ≤ + <5%)”. Also, under setting [1], the “UN: uncharacterized CNS activity” value is “+ (LOQ ≤ + <5%)”.
For `CNC[C@H]1OCCc2ccc(-c3cccnc3)cc21` [Compound 4, (S)-N-methyl-1-(7-(pyridin-3-yl)isochroman-1-yl)methanamine dihydrochloride], the minimal effective dose (i.p.) is 3 to 10 mg/kg. Under setting [1], the “AD: ADHD” value is on record as “+ (LOQ ≤ + <5%)”, the “AG: analgesic” value is given as “+ (LOQ ≤ + <5%)”, the “AX: anxiolytic” value is listed as “++ (5% ≤ ++ <25%)” and the “CE: cognitive enhancer” value is on record as “+ (LOQ ≤ + <5%)”. Besides, under setting [1], the “DP: anti-depressant” value is on record as “++ (5% ≤ ++ <25%)”, the “MS: mood stabilizer” value is reported as “+ (LOQ ≤ + <5%)”, the “PS: anti-psychotic” value is on record as “+++ (25% ≤ +++ <50%)” and the “SD: sedative hypnotic” value is “+ (LOQ ≤ + <5%)”. Besides, the “UN: uncharacterized CNS activity” value under setting [1] was “++ (5% ≤ ++ <25%)”.
With `CNC[C@@H]1OCCc2cc(-c3cccnc3)ccc21` [Compound 5, (R)-N-Methyl(6-(pyridin-3-yl)isochroman-1-yl)methanamine bis-hydrochloride], the minimal effective dose (i.p.) was 3 to 10 mg/kg. Moreover, under setting [1], the “AD: ADHD” value is on record as “+ (LOQ ≤ + <5%)”, the “AG: analgesic” value was “++ (5% ≤ ++ <25%)”, the “AX: anxiolytic” value is recorded as “++ (5% ≤ ++ <25%)” and the “CE: cognitive enhancer” value is listed as “+ (LOQ ≤ + <5%)”. Further, under setting [1], the “DP: anti-depressant” value is given as “++++ (50% ≤ ++++)”, the “MS: mood stabilizer” value is recorded as “+ (LOQ ≤ + <5%)”, the “PS: anti-psychotic” value is reported as “++ (5% ≤ ++ <25%)” and the “SD: sedative hypnotic” value is recorded as “+ (LOQ ≤ + <5%)”. Moreover, under setting [1], the “UN: uncharacterized CNS activity” value is on record as “+ (LOQ ≤ + <5%)”.
Turning to `CNC[C@H]1OCCc2cc(-c3cccnc3)ccc21` [Compound 6, (S)-N-methyl(6-(pyridin-3-yl)isochroman-1-yl)methanamine bis-hydrochloride], the minimal effective dose (i.p.) fell in the range of 10 to 30 mg/kg. Further, under setting [1], the “AD: ADHD” value is listed as “+ (LOQ ≤ + <5%)”, the “AG: analgesic” value is recorded as “++ (5% ≤ ++ <25%)”, the “AX: anxiolytic” value is “++ (5% ≤ ++ <25%)” and the “CE: cognitive enhancer” value is recorded as “++ (5% ≤ ++ <25%)”. Also, under setting [1], the “DP: anti-depressant” value is given as “+++ (25% ≤ +++ <50%)”, the “MS: mood stabilizer” value is listed as “+ (LOQ ≤ + <5%)”, the “PS: anti-psychotic” value is reported as “++ (5% ≤ ++ <25%)” and the “SD: sedative hypnotic” value is listed as “+ (LOQ ≤ + <5%)”. The “UN: uncharacterized CNS activity” value under setting [1] is listed as “+ (LOQ ≤ + <5%)”.
Consider `NC[C@H]1OCCc2cc(-c3cccnc3)ccc21` [Compound 14, hydrochloride salt], for which the minimal effective dose (i.p.) lay within 3 to 10 mg/kg. Moreover, under setting [1], the “AD: ADHD” value is reported as “+ (LOQ ≤ + <5%)”, the “AG: analgesic” value is reported as “++ (5% ≤ ++ <25%)”, the “AX: anxiolytic” value is recorded as “++ (5% ≤ ++ <25%)” and the “CE: cognitive enhancer” value was “+ (LOQ ≤ + <5%)”. Also, under setting [1], the “DP: anti-depressant” value was “++++ (50% ≤ ++++)”, the “MS: mood stabilizer” value is recorded as “+ (LOQ ≤ + <5%)”, the “PS: anti-psychotic” value was “+ (LOQ ≤ + <5%)” and the “SD: sedative hypnotic” value is listed as “+ (LOQ ≤ + <5%)”. In addition, the “UN: uncharacterized CNS activity” value under setting [1] is reported as “++ (5% ≤ ++ <25%)”.
On to `NC[C@@H]1OCCc2c(-c3cccnc3)cccc21` [Compound 15, (R)-(5-(Pyridin-3-yl)isochroman-1-yl)methanamine hydrochloride], for which, for the setting “i.p.”, the minimal effective dose was 10 to 30 mg/kg. Besides, under setting [1], the “AD: ADHD” value is recorded as “++ (5% ≤ ++ <25%)”, the “AG: analgesic” value is recorded as “++ (5% ≤ ++ <25%)”, the “AX: anxiolytic” value was “++ (5% ≤ ++ <25%)” and the “CE: cognitive enhancer” value is listed as “+ (LOQ ≤ + <5%)”. Further, under setting [1], the “DP: anti-depressant” value is listed as “+++ (25% ≤ +++ <50%)”, the “MS: mood stabilizer” value was “++ (5% ≤ ++ <25%)”, the “PS: anti-psychotic” value is reported as “++ (5% ≤ ++ <25%)” and the “SD: sedative hypnotic” value is recorded as “+ (LOQ ≤ + <5%)”. Besides, the “UN: uncharacterized CNS activity” value under setting [1] was “+ (LOQ ≤ + <5%)”.

For the origin of these results see patent US10780074B2, “Compounds and uses thereof” (Sunovion Pharmaceuticals Inc., priority 2017, dated 2020).
